Results taken from PubChem BioAssay (NCI).
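Where inhibition never reached the appropriate level, the endpoint shown equals the highest concentration tested. Otherwise, values were interpolated linearly from a five-concentration, 48-hour dose response in 96-well plates. The concentration for full growth arrest is given as TGI.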

How the values were obtained:
Test in all cases: NCI tumour cell line growth inhibition, 48 h
[1] = tested on: 786-0 renal
[2] = tested on: A498 renal
[3] = tested on: A549 NSCLC
[4] = tested on: ACHN renal
[5] = tested on: CAKI-1 renal
[6] = tested on: CCRF-CEM leukemia
[7] = tested on: COLO 205 colon
[8] = tested on: DLD-1 colon
[9] = tested on: DMS 114 small cell lung
[10] = tested on: DMS 273 small cell lung
[11] = tested on: EKVX NSCLC
[12] = tested on: HCC-2998 colon
[13] = tested on: HCT-116 colon
[14] = tested on: HCT-15 colon
[15] = tested on: HL-60(TB) leukemia
[16] = tested on: HOP-18 NSCLC
[17] = tested on: HOP-62 NSCLC
[18] = tested on: HOP-92 NSCLC
[19] = tested on: HT29 colon
[20] = tested on: IGROV1 ovarian
[21] = tested on: K-562 leukemia
[22] = tested on: KM12 colon
[23] = tested on: KM20L2 colon
[24] = tested on: LOX IMVI melanoma
[25] = tested on: LXFL 529 NSCLC
[26] = tested on: M14 melanoma
[27] = tested on: M19-MEL melanoma
[28] = tested on: MALME-3M melanoma
[29] = tested on: MOLT-4 leukemia
[30] = tested on: NCI-H226 lung
[31] = tested on: NCI-H23 lung
[32] = tested on: NCI-H460 lung
[33] = tested on: NCI-H522 lung
[34] = tested on: OVCAR-3 ovarian
[35] = tested on: OVCAR-4 ovarian
[36] = tested on: OVCAR-5 ovarian
[37] = tested on: OVCAR-8 ovarian
[38] = tested on: RXF 393 renal
[39] = tested on: RXF-631 renal
[40] = tested on: SF-268 CNS
[41] = tested on: SF-295 CNS
[42] = tested on: SF-539 CNS
[43] = tested on: SK-MEL-2 melanoma
[44] = tested on: SK-MEL-28 melanoma
[45] = tested on: SK-MEL-5 melanoma
[46] = tested on: SK-OV-3 ovarian
[47] = tested on: SN12C renal
[48] = tested on: SNB-19 CNS
[49] = tested on: SNB-75 CNS
[50] = tested on: SNB-78 CNS
[51] = tested on: SR leukemia
[52] = tested on: SW-620 colon
[53] = tested on: TK-10 renal
[54] = tested on: U251 CNS
[55] = tested on: UACC-257 melanoma
[56] = tested on: UACC-62 melanoma
[57] = tested on: UO-31 renal
[58] = tested on: RPMI-8226 leukemia
[59] = tested on: XF 498 CNS

For `CN(C)CCNC(=O)c1ccc(C(=O)NCCN(C)C)c2nc3ccccc3cc12`, the TGI [1] was 13.8 µM, the TGI [2] was 3.93 µM and the TGI [3] was 13 µM. It also gave a TGI [4] of 8.58 µM, a TGI [5] of 9.09 µM and a TGI [6] of 10.2 µM. It also gave a TGI [7] of 2.39 µM, a TGI [8] of 5.28 µM and a TGI [9] of 2.16 µM. For the same compound, the TGI [10] was 4.76 µM, the TGI [11] was 6.89 µM and the TGI [12] was 2.98 µM. It also gave a TGI [13] of 6.08 µM, a TGI [14] of 16.9 µM and a TGI [15] of 9.5 µM. For the same compound, the TGI [16] was 25.4 µM, the TGI [17] was 4.45 µM and the TGI [18] was 7.99 µM. For the same compound, the TGI [19] was 6.15 µM, the TGI [20] was over 50.2 µM and the TGI [21] was over 30 µM. It also gave a TGI [22] of 4.14 µM, a TGI [23] of 10.3 µM and a TGI [24] of 3.15 µM. The TGI [25] was 12.3 µM, the TGI [26] was 3.44 µM and the TGI [27] was 2.35 µM. For the same compound, the TGI [28] was 2.97 µM, the TGI [29] was 1.56 µM and the TGI [30] was 3.6 µM. The TGI [31] was 3.8 µM, the TGI [32] was 2.79 µM and the TGI [33] was 1.93 µM. For the same compound, the TGI [34] was 9.91 µM, the TGI [35] was 3.52 µM and the TGI [36] was 3.78 µM. It also gave a TGI [37] of 12.7 µM, a TGI [38] of 2.09 µM and a TGI [39] of 14.8 µM. The TGI [40] was 6.79 µM, the TGI [41] was 16.4 µM and the TGI [42] was 2.01 µM. For the same compound, the TGI [43] was 2.57 µM, the TGI [44] was 3.89 µM and the TGI [45] was 4.34 µM. The TGI [46] was 7.5 µM, the TGI [47] was 8.96 µM and the TGI [48] was 11.3 µM. It also gave a TGI [49] of 3.46 µM, a TGI [50] of 12.7 µM and a TGI [51] of 2.49 µM. The TGI [52] was 9.56 µM, the TGI [53] was 5.08 µM and the TGI [54] was 7.85 µM. It also gave a TGI [55] of 4.47 µM, a TGI [56] of 2.38 µM and a TGI [57] of 18 µM.
With `O=C(O)C12C3C4C1C1C2C3C1(Br)C41OCCO1` (stereo not given) the TGI [1] was over 100 µM, the TGI [2] was over 100 µM and the TGI [3] was over 100 µM. It also gave a TGI [4] of over 100 µM, a TGI [6] of over 100 µM and a TGI [7] of over 100 µM. For the same compound, the TGI [8] was over 100 µM, the TGI [9] was over 100 µM and the TGI [10] was over 100 µM. For the same compound, the TGI [11] was over 100 µM, the TGI [12] was over 100 µM and the TGI [13] was over 100 µM. For the same compound, the TGI [15] was over 100 µM, the TGI [16] was over 100 µM and the TGI [17] was over 100 µM. For the same compound, the TGI [18] was over 100 µM, the TGI [19] was over 100 µM and the TGI [20] was over 100 µM. It also gave a TGI [21] of over 100 µM, a TGI [22] of over 100 µM and a TGI [23] of over 100 µM. The TGI [24] was over 100 µM, the TGI [25] was over 100 µM and the TGI [27] was over 100 µM. It also gave a TGI [28] of over 100 µM, a TGI [29] of over 100 µM and a TGI [31] of over 100 µM. The TGI [32] was over 100 µM, the TGI [33] was over 100 µM and the TGI [34] was over 100 µM. For the same compound, the TGI [36] was over 100 µM, the TGI [37] was over 100 µM and the TGI [58] was over 100 µM. It also gave a TGI [38] of over 100 µM, a TGI [40] of over 100 µM and a TGI [41] of over 100 µM. It also gave a TGI [42] of over 100 µM, a TGI [43] of over 100 µM and a TGI [44] of over 100 µM. The TGI [45] was over 100 µM, the TGI [46] was over 100 µM and the TGI [48] was over 100 µM. It also gave a TGI [49] of over 100 µM, a TGI [50] of over 100 µM and a TGI [52] of over 100 µM. It also gave a TGI [53] of over 100 µM, a TGI [54] of over 100 µM and a TGI [55] of over 100 µM. For the same compound, the TGI [57] was over 100 µM and the TGI [59] was over 100 µM.
For `OCC(O)C(OC1OC(CO)C(O)C(O)C1O)c1nn(-c2ccccc2)c2nc3cc(Cl)c(Cl)cc3cc12` (stereo not given), the TGI [1] was over 100 µM, the TGI [2] was over 100 µM and the TGI [4] was over 100 µM. For the same compound, the TGI [6] was over 100 µM, the TGI [8] was over 100 µM and the TGI [11] was over 100 µM. For the same compound, the TGI [12] was over 100 µM, the TGI [13] was over 100 µM and the TGI [14] was over 100 µM. It also gave a TGI [17] of over 100 µM, a TGI [19] of over 100 µM and a TGI [21] of over 100 µM. The TGI [22] was over 100 µM, the TGI [23] was over 100 µM and the TGI [24] was over 100 µM. It also gave a TGI [25] of over 100 µM, a TGI [26] of over 100 µM and a TGI [27] of over 100 µM. For the same compound, the TGI [28] was over 100 µM, the TGI [29] was over 100 µM and the TGI [31] was over 100 µM. It also gave a TGI [32] of over 100 µM, a TGI [33] of over 100 µM and a TGI [34] of over 100 µM. For the same compound, the TGI [35] was over 100 µM, the TGI [36] was over 100 µM and the TGI [37] was over 100 µM. It also gave a TGI [58] of over 100 µM, a TGI [38] of over 100 µM and a TGI [39] of over 100 µM. It also gave a TGI [40] of over 100 µM, a TGI [41] of over 100 µM and a TGI [42] of over 100 µM. For the same compound, the TGI [44] was over 100 µM, the TGI [46] was over 100 µM and the TGI [47] was over 100 µM. The TGI [48] was over 100 µM, the TGI [49] was over 100 µM and the TGI [50] was over 100 µM. For the same compound, the TGI [51] was over 100 µM, the TGI [53] was over 100 µM and the TGI [54] was over 100 µM. The TGI [55] was over 100 µM, the TGI [56] was over 100 µM and the TGI [57] was over 100 µM. It also gave a TGI [59] of over 100 µM.
In the case of `COc1ccc2cc1Oc1ccc(cc1)C[C@@H]1c3cc(c(OC)cc3CCN1C)Oc1c(OC)c(OC)cc3c1[C@@H](C2)N(C)CC3`, the TGI [2] is reported as 32.5 µM, the TGI [4] is reported as 34.8 µM and the TGI [6] is reported as 35 µM. The TGI [8] was 71.6 µM, the TGI [10] was 35.3 µM and the TGI [12] was 30.7 µM. It also gave a TGI [13] of 13 µM, a TGI [14] of 30 µM and a TGI [15] of 39.9 µM. For the same compound, the TGI [17] was 35.8 µM, the TGI [18] was 26.9 µM and the TGI [20] was 40.8 µM. For the same compound, the TGI [21] was 9.77 µM, the TGI [23] was 21.3 µM and the TGI [25] was 32.7 µM. The TGI [26] was 4.01 µM, the TGI [31] was 33.7 µM and the TGI [32] was 27.3 µM. The TGI [33] was 30 µM, the TGI [34] was 33.8 µM and the TGI [37] was 28.2 µM. The TGI [58] was 39.9 µM, the TGI [38] was 8.77 µM and the TGI [39] was 30 µM. The TGI [40] was 52.4 µM, the TGI [41] was 31.3 µM and the TGI [42] was 23 µM. It also gave a TGI [45] of 33.8 µM, a TGI [46] of 41.2 µM and a TGI [48] of 30.8 µM. For the same compound, the TGI [49] was 23.7 µM, the TGI [50] was 31.6 µM and the TGI [51] was 43.3 µM. For the same compound, the TGI [53] was 33.5 µM, the TGI [54] was 26 µM and the TGI [55] was 28.1 µM. For the same compound, the TGI [59] was 19.3 µM.
